Test results taken from PubChem BioAssay AID248 (DTP/NCI, 2004).
Toxic doses and inconclusive results are not listed. Cut-off read from the data, not from the text of the source: active = T/C of 150% or more; inactive = T/C below 125%.

Tested on: L1210 leukemia ip in BDF1 mice, survival T/C
Assay: NCI In Vivo Anticancer Drug Screen. Data for tumor model L1210 Leukemia (intraperitoneal) in B6D2F1 (BDF1) mice
Settings: endpoint: mean survival time, higher = longer survival
How it was run: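 Transplanted-tumor mice were given test agent; controls received vehicle only. Survival readings from the two groups were divided (treated over control).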

[1] = dose: 100.0 mg/kg/injection, schedule: Q04DX003 (ip), vehicle: saline with Tween-80
[2] = dose: 200.0 mg/kg/injection, schedule: Q04DX003 (ip), vehicle: saline with Tween-80
[3] = dose: 100.0 mg/kg/injection, schedule: Q01DX001 (ip), vehicle: saline
[4] = dose: 100.0 mg/kg/injection, schedule: Q01DX009 (ip), vehicle: saline with Tween-80
[5] = dose: 200.0 mg/kg/injection, schedule: Q01DX001 (ip), vehicle: saline
[6] = dose: 200.0 mg/kg/injection, schedule: Q01DX009 (ip), vehicle: saline with Tween-80
[7] = dose: 100.0 mg/kg/injection, schedule: Q04DX002 (ip), vehicle: Klucel (hydroxypropylcellulose) (HPC)
[8] = dose: 200.0 mg/kg/injection, schedule: Q04DX002 (ip), vehicle: Klucel (hydroxypropylcellulose) (HPC)
[9] = dose: 400.0 mg/kg/injection, schedule: Q04DX002 (ip), vehicle: Klucel (hydroxypropylcellulose) (HPC)
[10] = dose: 400.0 mg/kg/injection, schedule: Q01DX001 (ip), vehicle: saline

Measured: T/C

O=C1OC(c2ccc(Cl)cc2)Sc2ccccc21 (centres undefined)
inactive: [1] 103 % of control | [2] 94 % of control | dose: 400.0 mg/kg/injection, schedule: Q04DX003 (ip), vehicle: saline with Tween-80 100 % of control

CCSc1ncnc2nc[nH]c12
inactive: dose: 75.0 mg/kg/injection, schedule: Q01DX001 (ip), vehicle: acetone 105 % of control | dose: 150.0 mg/kg/injection, schedule: Q01DX001 (ip), vehicle: acetone 105 % of control | dose: 300.0 mg/kg/injection, schedule: Q01DX001 (ip), vehicle: acetone 105 % of control

CC12COC(=O)CC1CCC1C2CCC2(C)C1CCC2(C)O (centres undefined)
inactive: dose: 50.0 mg/kg/injection, schedule: Q01DX009 (ip), vehicle: saline with Tween-80 96 % of control | [3] 93 % of control | [4] 91 % of control | [5] 90 % of control | [6] 101 % of control

NC(CC(O)c1ccccc1)c1ccccc1 (centres undefined)
inactive: dose: 75.0 mg/kg/injection, schedule: Q01DX001 (ip), vehicle: carboxymethylcellulose (CMC) 96 % of control

CCOC(=O)C(Cc1ccc(Cl)c(Cl)c1)(NC(C)=O)C(=O)OCC
inactive: dose: 50.0 mg/kg/injection, schedule: Q04DX003 (ip), vehicle: saline with Tween-80 102 % of control | [1] 94 % of control | [2] 96 % of control

O=C(/C=C/c1cccc([N+](=O)[O-])c1)c1ccccc1[N+](=O)[O-]
inactive: [7] 103 % of control | [8] 103 % of control | [9] 100 % of control

CCCNC1=C(C)C(=O)C2=C(C1=O)[C@H](COC(N)=O)[C@]1(OC)[C@@H]3N[C@@H]3CN21
active: dose: 15.0 mg/kg/injection, schedule: Q01DX001 (ip), vehicle: acetone 165 % of control
inactive: dose: 2.9 mg/kg/injection, schedule: Q01DX001 (ip), vehicle: acetone 109 % of control | dose: 4.3 mg/kg/injection, schedule: Q01DX001 (ip), vehicle: acetone 117 % of control | dose: 4.5 mg/kg/injection, schedule: Q01DX009 (ip), vehicle: acetone 118 % of control | dose: 6.6 mg/kg/injection, schedule: Q01DX001 (ip), vehicle: saline 108 % of control | dose: 7.5 mg/kg/injection, schedule: Q01DX009 (ip), vehicle: acetone 86 % of control | dose: 9.9 mg/kg/injection, schedule: Q01DX001 (ip), vehicle: saline 101 % of control | dose: 15.0 mg/kg/injection, schedule: Q01DX001 (ip), vehicle: saline 110 % of control | dose: 22.0 mg/kg/injection, schedule: Q01DX001 (ip), vehicle: acetone 92 % of control | dose: 22.0 mg/kg/injection, schedule: Q01DX001 (ip), vehicle: saline 113 % of control

COc1ccc(C(N)=O)c(C)c1OC
inactive: dose: 50.0 mg/kg/injection, schedule: Q01DX001 (ip), vehicle: saline 98 % of control | [3] 95 % of control | [5] 95 % of control | [10] 95 % of control

Clc1nc2ccccc2c2ccccc12
inactive: dose: 43.0 mg/kg/injection, schedule: Q01DX001 (ip), vehicle: carboxymethylcellulose (CMC) 96 % of control | dose: 85.0 mg/kg/injection, schedule: Q01DX001 (ip), vehicle: carboxymethylcellulose (CMC) 92 % of control | dose: 170.0 mg/kg/injection, schedule: Q01DX001 (ip), vehicle: carboxymethylcellulose (CMC) 92 % of control

COc1cc2c(c3c1CCC(C)(C)O3)Cc1c(cc(OC)c(OC)c1CCC(C)(C)O)O2
inactive: dose: 100.0 mg/kg/injection, schedule: Q01DX001 (ip), vehicle: Klucel (hydroxypropylcellulose) (HPC) 103 % of control | dose: 200.0 mg/kg/injection, schedule: Q01DX001 (ip), vehicle: Klucel (hydroxypropylcellulose) (HPC) 96 % of control | dose: 400.0 mg/kg/injection, schedule: Q01DX001 (ip), vehicle: Klucel (hydroxypropylcellulose) (HPC) 92 % of control

O=C(O)CCCCCCCCCCCO
inactive: dose: 100.0 mg/kg/injection, schedule: Q04DX003 (ip), vehicle: Klucel (hydroxypropylcellulose) (HPC) 100 % of control | dose: 200.0 mg/kg/injection, schedule: Q04DX003 (ip), vehicle: Klucel (hydroxypropylcellulose) (HPC) 97 % of control | dose: 400.0 mg/kg/injection, schedule: Q04DX003 (ip), vehicle: Klucel (hydroxypropylcellulose) (HPC) 91 % of control

OC(c1nc2ccccc2[nH]1)C(O)C(O)C(O)c1nc2ccccc2[nH]1 (centres undefined)
inactive: [3] 105 % of control | [7] 100 % of control | [5] 96 % of control | [8] 87 % of control | [10] 86 % of control | [9] 97 % of control

O=C(Nc1ccc(Nc2ccccc2)cc1)Nc1cccc(F)c1
inactive: [4] 88 % of control | [6] 96 % of control
